Experimental data as given in PubChem BioAssay (NCI).
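How tested: cells in 96-well plates exposed to compound for 48 hours at five concentrations. Definition used: TGI = concentration required for complete inhibition of growth.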

Tests used:
Assay in all cases: growth of human tumour cells (NCI), 48 h
EKVX NSCLC = test system: EKVX NSCLC
HL-60(TB) leukemia = test system: HL-60(TB) leukemia
HCC-2998 colon = test system: HCC-2998 colon
HOP-62 NSCLC = test system: HOP-62 NSCLC
A498 renal = test system: A498 renal
RPMI-8226 leukemia = test system: RPMI-8226 leukemia
MDA-MB-435 = test system: MDA-MB-435
SK-MEL-5 melanoma = test system: SK-MEL-5 melanoma
HOP-92 NSCLC = test system: HOP-92 NSCLC
MDA-N = test system: MDA-N
UACC-62 melanoma = test system: UACC-62 melanoma
NCI-H23 lung = test system: NCI-H23 lung
SK-MEL-28 melanoma = test system: SK-MEL-28 melanoma
SK-MEL-2 melanoma = test system: SK-MEL-2 melanoma
ACHN renal = test system: ACHN renal
786-0 renal = test system: 786-0 renal
HCT-15 colon = test system: HCT-15 colon
LOX IMVI melanoma = test system: LOX IMVI melanoma
OVCAR-3 ovarian = test system: OVCAR-3 ovarian
MDA-MB-231 breast = test system: MDA-MB-231 breast
SF-539 CNS = test system: SF-539 CNS
MCF7 breast = test system: MCF7 breast
NCI-H522 lung = test system: NCI-H522 lung
BT-549 breast = test system: BT-549 breast
UACC-257 melanoma = test system: UACC-257 melanoma
KM12 colon = test system: KM12 colon
SNB-75 CNS = test system: SNB-75 CNS
CCRF-CEM leukemia = test system: CCRF-CEM leukemia
NCI/ADR-RES ovarian = test system: NCI/ADR-RES ovarian
SF-295 CNS = test system: SF-295 CNS
U251 CNS = test system: U251 CNS
SN12C renal = test system: SN12C renal
RXF 393 renal = test system: RXF 393 renal
PC-3 prostate = test system: PC-3 prostate
K-562 leukemia = test system: K-562 leukemia
OVCAR-5 ovarian = test system: OVCAR-5 ovarian
CAKI-1 renal = test system: CAKI-1 renal
SR leukemia = test system: SR leukemia
HS 578T breast = test system: HS 578T breast
UO-31 renal = test system: UO-31 renal
MALME-3M melanoma = test system: MALME-3M melanoma
IGROV1 ovarian = test system: IGROV1 ovarian
M14 melanoma = test system: M14 melanoma
SK-OV-3 ovarian = test system: SK-OV-3 ovarian
MOLT-4 leukemia = test system: MOLT-4 leukemia
NCI-H460 lung = test system: NCI-H460 lung
T-47D breast = test system: T-47D breast
SNB-19 CNS = test system: SNB-19 CNS
COLO 205 colon = test system: COLO 205 colon
OVCAR-4 ovarian = test system: OVCAR-4 ovarian
SW-620 colon = test system: SW-620 colon
SF-268 CNS = test system: SF-268 CNS
A549 NSCLC = test system: A549 NSCLC
TK-10 renal = test system: TK-10 renal
NCI-H226 lung = test system: NCI-H226 lung
HCT-116 colon = test system: HCT-116 colon
DU-145 prostate = test system: DU-145 prostate
OVCAR-8 ovarian = test system: OVCAR-8 ovarian
HT29 colon = test system: HT29 colon

NC(=S)N/N=C/c1ccc(N)cn1
TGI (EKVX NSCLC): > 10 µM
TGI (HL-60(TB) leukemia): 5.44 µM
TGI (HCC-2998 colon): > 10 µM
TGI (HOP-62 NSCLC): > 10 µM
TGI (A498 renal): > 10 µM
TGI (RPMI-8226 leukemia): > 10 µM
TGI (MDA-MB-435): > 10 µM
TGI (SK-MEL-5 melanoma): > 6.95 µM
TGI (HOP-92 NSCLC): > 10 µM
TGI (MDA-N): > 10 µM
TGI (UACC-62 melanoma): > 10 µM
TGI (NCI-H23 lung): > 8.9 µM
TGI (SK-MEL-28 melanoma): > 10 µM
TGI (SK-MEL-2 melanoma): > 10 µM
TGI (ACHN renal): 7.65 µM
TGI (786-0 renal): > 10 µM
TGI (HCT-15 colon): > 10 µM
TGI (LOX IMVI melanoma): > 10 µM
TGI (OVCAR-3 ovarian): > 10 µM
TGI (MDA-MB-231 breast): > 10 µM
TGI (SF-539 CNS): 2.2 µM
TGI (MCF7 breast): > 10 µM
TGI (NCI-H522 lung): > 10 µM
TGI (BT-549 breast): > 10 µM
TGI (UACC-257 melanoma): > 10 µM
TGI (KM12 colon): > 10 µM
TGI (SNB-75 CNS): > 10 µM
TGI (CCRF-CEM leukemia): > 10 µM
TGI (NCI/ADR-RES ovarian): > 10 µM
TGI (SF-295 CNS): > 10 µM
TGI (U251 CNS): > 10 µM
TGI (SN12C renal): > 10 µM
TGI (RXF 393 renal): > 10 µM
TGI (PC-3 prostate): > 10 µM
TGI (K-562 leukemia): > 10 µM
TGI (OVCAR-5 ovarian): > 10 µM
TGI (CAKI-1 renal): > 10 µM
TGI (SR leukemia): > 10 µM
TGI (HS 578T breast): > 10 µM
TGI (UO-31 renal): 6.97 µM
TGI (MALME-3M melanoma): > 10 µM
TGI (IGROV1 ovarian): > 10 µM
TGI (M14 melanoma): > 7.38 µM
TGI (SK-OV-3 ovarian): > 10 µM
TGI (MOLT-4 leukemia): > 10 µM
TGI (NCI-H460 lung): > 10 µM
TGI (T-47D breast): > 10 µM
TGI (SNB-19 CNS): > 10 µM
TGI (COLO 205 colon): 8.03 µM
TGI (OVCAR-4 ovarian): > 10 µM
TGI (SW-620 colon): > 10 µM
TGI (SF-268 CNS): > 10 µM
TGI (A549 NSCLC): > 10 µM
TGI (TK-10 renal): > 10 µM
TGI (NCI-H226 lung): > 10 µM
TGI (HCT-116 colon): > 10 µM
TGI (DU-145 prostate): 7.76 µM
TGI (OVCAR-8 ovarian): > 10 µM
TGI (HT29 colon): > 10 µM

O=C(NNCC(F)(F)F)c1ccncc1
TGI (EKVX NSCLC): > 100 µM
TGI (HL-60(TB) leukemia): > 100 µM
TGI (HCC-2998 colon): > 100 µM
TGI (HOP-62 NSCLC): > 100 µM
TGI (A498 renal): > 100 µM
TGI (RPMI-8226 leukemia): > 100 µM
TGI (MDA-MB-435): > 100 µM
TGI (SK-MEL-5 melanoma): > 100 µM
TGI (HOP-92 NSCLC): > 100 µM
TGI (MDA-N): > 100 µM
TGI (UACC-62 melanoma): > 100 µM
TGI (NCI-H23 lung): > 100 µM
TGI (SK-MEL-28 melanoma): > 100 µM
TGI (SK-MEL-2 melanoma): > 100 µM
TGI (ACHN renal): > 100 µM
TGI (786-0 renal): > 100 µM
TGI (HCT-15 colon): > 100 µM
TGI (LOX IMVI melanoma): > 100 µM
TGI (OVCAR-3 ovarian): > 100 µM
TGI (MDA-MB-231 breast): > 100 µM
TGI (SF-539 CNS): > 100 µM
TGI (MCF7 breast): > 100 µM
TGI (NCI-H522 lung): > 100 µM
TGI (BT-549 breast): > 100 µM
TGI (UACC-257 melanoma): > 100 µM
TGI (KM12 colon): > 100 µM
TGI (SNB-75 CNS): > 100 µM
TGI (CCRF-CEM leukemia): > 100 µM
TGI (NCI/ADR-RES ovarian): > 100 µM
TGI (SF-295 CNS): > 100 µM
TGI (U251 CNS): > 100 µM
TGI (SN12C renal): > 100 µM
TGI (RXF 393 renal): > 100 µM
TGI (PC-3 prostate): > 100 µM
TGI (K-562 leukemia): > 100 µM
TGI (OVCAR-5 ovarian): > 100 µM
TGI (CAKI-1 renal): > 100 µM
TGI (SR leukemia): > 100 µM
TGI (HS 578T breast): > 100 µM
TGI (UO-31 renal): > 100 µM
TGI (MALME-3M melanoma): > 100 µM
TGI (IGROV1 ovarian): > 100 µM
TGI (M14 melanoma): > 100 µM
TGI (SK-OV-3 ovarian): > 100 µM
TGI (MOLT-4 leukemia): > 100 µM
TGI (NCI-H460 lung): > 100 µM
TGI (T-47D breast): > 100 µM
TGI (SNB-19 CNS): > 100 µM
TGI (COLO 205 colon): > 100 µM
TGI (OVCAR-4 ovarian): > 100 µM
TGI (SW-620 colon): > 100 µM
TGI (SF-268 CNS): > 100 µM
TGI (A549 NSCLC): > 100 µM
TGI (TK-10 renal): > 100 µM
TGI (NCI-H226 lung): > 100 µM
TGI (HCT-116 colon): > 100 µM
TGI (DU-145 prostate): > 100 µM
TGI (OVCAR-8 ovarian): > 100 µM
TGI (HT29 colon): > 100 µM
